Experimental data from paper PMC13316043, “Structural basis of NSD2 degradation via targeted recruitment of SCF-FBXO22” (Nature Communications, 2026).

Tests used:
[1] = target: T1, NSD2 (U2OS NSD2-HiBiT cells) (Homo sapiens, UniProt O96028); assay: NSD2 HiBiT degradation assay; format: cell-based; conditions: for NSD2 Remaining (%) / reduction of NSD2 levels: U2OS NSD2-HiBit cells, 1 µM, 6 h; for DC50: dose-response, read-out: DC50 (concentration at which 50% of NSD2 is degraded)
T1 construct: RNPs were introduced into U2OS cells by electroporation; endogenous in cells; host or cells: U2OS NSD2-HiBiT clone P112 (CRISPR knock-in)
T1 sequence (O96028 1-1365): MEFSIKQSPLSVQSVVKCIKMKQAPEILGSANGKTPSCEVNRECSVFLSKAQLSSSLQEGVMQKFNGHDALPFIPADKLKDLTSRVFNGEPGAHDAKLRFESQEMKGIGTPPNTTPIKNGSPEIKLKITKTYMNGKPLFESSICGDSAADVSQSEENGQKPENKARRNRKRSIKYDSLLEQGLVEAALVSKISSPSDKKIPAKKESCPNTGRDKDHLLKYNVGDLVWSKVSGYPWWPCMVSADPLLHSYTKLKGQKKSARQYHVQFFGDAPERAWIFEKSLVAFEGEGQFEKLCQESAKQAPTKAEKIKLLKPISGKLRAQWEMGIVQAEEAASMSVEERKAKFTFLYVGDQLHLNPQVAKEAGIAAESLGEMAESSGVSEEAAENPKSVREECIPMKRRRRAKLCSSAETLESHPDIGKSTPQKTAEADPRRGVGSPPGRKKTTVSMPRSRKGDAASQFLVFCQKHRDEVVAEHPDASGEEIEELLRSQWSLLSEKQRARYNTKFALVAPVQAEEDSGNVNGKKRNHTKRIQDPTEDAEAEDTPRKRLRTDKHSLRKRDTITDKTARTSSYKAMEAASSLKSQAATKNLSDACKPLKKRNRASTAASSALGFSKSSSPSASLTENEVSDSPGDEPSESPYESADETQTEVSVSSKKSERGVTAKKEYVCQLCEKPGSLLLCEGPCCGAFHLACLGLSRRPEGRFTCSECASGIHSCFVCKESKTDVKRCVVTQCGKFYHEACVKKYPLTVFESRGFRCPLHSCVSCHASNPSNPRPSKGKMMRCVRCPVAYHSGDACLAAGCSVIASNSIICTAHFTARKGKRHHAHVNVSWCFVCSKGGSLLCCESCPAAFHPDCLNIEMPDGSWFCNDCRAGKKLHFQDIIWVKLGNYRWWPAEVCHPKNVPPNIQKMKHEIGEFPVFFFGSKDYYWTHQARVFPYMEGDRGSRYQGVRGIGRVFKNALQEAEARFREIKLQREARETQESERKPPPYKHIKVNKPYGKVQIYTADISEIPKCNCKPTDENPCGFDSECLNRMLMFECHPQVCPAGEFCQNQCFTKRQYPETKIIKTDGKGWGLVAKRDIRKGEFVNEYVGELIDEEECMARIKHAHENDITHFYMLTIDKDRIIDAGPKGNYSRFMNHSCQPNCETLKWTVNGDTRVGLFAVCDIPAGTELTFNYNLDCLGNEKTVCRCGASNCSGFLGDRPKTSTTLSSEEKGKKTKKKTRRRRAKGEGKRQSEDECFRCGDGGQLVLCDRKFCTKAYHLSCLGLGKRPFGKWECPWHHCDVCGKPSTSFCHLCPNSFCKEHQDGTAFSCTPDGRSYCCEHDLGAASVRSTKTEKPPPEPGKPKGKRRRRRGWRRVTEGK
Excerpt: The NSD2 genomic sequence was obtained from the UCSC genome browser and used to design sgRNAs to introduce HiBiT tags at either the 5’ or 3’ ends of the gene. sgRNA were assembled into RNPs using TrueCut Cas9 Protein v2 (Invitrogen, Cat#A36497), an sgRNA crRNA:tracrRNA duplex (below; IDT) and ssODN (below; IDT). RNPs were introduced into U2OS cells by electroporation using a Neon XT electroporation system (1750 V, 10 ms, 3 pulses) in R-buffer, using Thermo Fisher Neon transfection kit (Cat# MPK1025K) and according to the manufacturer's protocol. After plating for recovery for four days, single cell clones limited dilution cloning. Single cell clones that grew out were identified as containing integrated HiBiT tags on NSD2 by performing HiBiT assays using HiBiT lytic assay (Promega: N3040) and read on a plate reader. Clones were further confirmed by PCR analysis.
To test compounds for NSD2 degradation, a compound plate was prepared by diluting compounds in DMSO into cell media in a 384-deep-well plate (Revvity). Then, 6 µL of the diluted compounds were transferred into the well of the 384-well assay plate (Corning). 24 µL of the NSD2 HiBiT U2OS P112 cells or parental U2OS cells (3000 cells/well) were added to each well to make a final volume of 30 µL with a 0.1% final DMSO concentration. For multiple time points, multiple assay plates were made and incubated in the incubator at 37 °C in 5% CO2 for 3/6/12/24/48 hrs. 10 min before the reading, the assay plate and the Nano-Glo HiBiT Lytic Detection System (Promega) were brought to room temperature. The HiBiT lytic reagent master mix was prepared according to the product instructions and added to the assay plate. The plate was then incubated on an orbital shaker for 5 min at room temperature, equilibrated for 10 min, and then read using the GloMax luminometer (Promega) for luminescence detection. Compound treatment was normalized to the DMSO control with the background subtraction using the parental U2OS cell line as the background control, plated alongside the HiBiT U2OS P112 cells. The data and graphs were then analyzed and generated using GraphPad Prism (v 10.4.1). DC50 and Dmax were calculated by fitting the data to a non-linear regression curve.

FBXO22 FIST domain = assay: Differential scanning fluorimetry (DSF); format: binding, human; conditions: vs DMSO
Procedure: A total of 9.5 µL of the master mix containing FBXO22 FIST WT or variants, SYPRO Orange Dye (Invitrogen), and DSF buffer (20 mM Tris 7.5, 150 mM NaCl, and 1 mM TCEP) were added to a 384-well qPCR plate (Genesee Scientific). 0.5 µL of the compound in DMSO was added to achieve a final concentration of 15 µM of the protein and 15× SYPRO Orange. The DSF assay plate was covered and incubated on an orbital shaker at room temperature for 30 min. The DSF assay was performed using the ViiA 7 Real-Time PCR System (Applied Biosystems). The plate was heated from 25°C to 95°C with a rate of 0.033°C/second. The raw fluorescence value was analyzed using the Protein Thermal Shift Software (Applied Biosystems, v1.4) to obtain the Tm. The graph was generated using GraphPad Prism (v 10.4.1).

Structure (SMILES): Cc1cc(C=O)ccc1C(=O)N1CCc2cc(NC(=O)c3ccc(CN(C(=O)c4ccc5c(c4)OCC(=O)N5)C4CC4)cc3)ccc2C1 [UNC12149]
- NSD2 Remaining (%) [1]: 7.4%
- reduction of NSD2 levels [1]: greater than 90%
- fold more potent (DC50) than UNC8732 ([1]; U2OS NSD2 HiBit cells): ~ 10 fold
- fold more potent (DC50) than UNC10415667 ([1]; U2OS NSD2 HiBit cells): ~ 4 fold
- DC50 ([1]; U2OS NSD2 HiBit cells): 120 nM

Structure (SMILES): O=Cc1ccc(C(=O)N2CCc3cc(NC(=O)c4ccc(CN(C(=O)c5ccc6c(c5)OCC(=O)N6)C5CC5)cc4)ccc3C2)cc1 [UNC10415667]
- change in melting temperature (Tm) of FBXO22 FIST C326A (FBXO22 FIST domain; C326A variant): negligible shift
- change in melting temperature (Tm) of WT FBXO22 FIST (FBXO22 FIST domain): significant increase
- NSD2 Remaining (%) [1]: 20%
- reduction of NSD2 levels [1]: about 75%
- fold more potent (DC50) than UNC8732 and UNC10088 ([1]; U2OS NSD2 HiBit cells): about 2 fold
- DC50 ([1]; U2OS NSD2 HiBit cells): 460 nM

Structure (SMILES): O=C1COc2cc(C(=O)N(Cc3ccc(C(=O)Nc4ccc5c(c4)CCN(C(=O)CCCCC(O)S(=O)(=O)O)C5)cc3)C3CC3)ccc2N1 (stereo not drawn) [UNC10088]
- change in melting temperature (Tm) of WT FBXO22 FIST (FBXO22 FIST domain): stabilize WT FBXO22 FIST
